Laboratory results: article PMC6270838, “Design and Synthesis of C-Terminal Modified Cyclic Peptides as VEGFR1 Antagonists” (Molecules, 2014)
Bridge positions count the residues as written; N and C are the ends. Peptide text beside a SMILES is read from it. * marks the point of attachment. X1 = COc1ccc2c(CN*)cc(=O)oc2c1

How the values were obtained:
[1] = biological target: recombinant human VEGFR1 extracellular domains (ECD) (Homo sapiens, UniProt P17948); details: average of at least 3 tests each in triplicate
Sequence of recombinant human VEGFR1 extracellular domains (ECD) (P17948 27-758 limits assumed): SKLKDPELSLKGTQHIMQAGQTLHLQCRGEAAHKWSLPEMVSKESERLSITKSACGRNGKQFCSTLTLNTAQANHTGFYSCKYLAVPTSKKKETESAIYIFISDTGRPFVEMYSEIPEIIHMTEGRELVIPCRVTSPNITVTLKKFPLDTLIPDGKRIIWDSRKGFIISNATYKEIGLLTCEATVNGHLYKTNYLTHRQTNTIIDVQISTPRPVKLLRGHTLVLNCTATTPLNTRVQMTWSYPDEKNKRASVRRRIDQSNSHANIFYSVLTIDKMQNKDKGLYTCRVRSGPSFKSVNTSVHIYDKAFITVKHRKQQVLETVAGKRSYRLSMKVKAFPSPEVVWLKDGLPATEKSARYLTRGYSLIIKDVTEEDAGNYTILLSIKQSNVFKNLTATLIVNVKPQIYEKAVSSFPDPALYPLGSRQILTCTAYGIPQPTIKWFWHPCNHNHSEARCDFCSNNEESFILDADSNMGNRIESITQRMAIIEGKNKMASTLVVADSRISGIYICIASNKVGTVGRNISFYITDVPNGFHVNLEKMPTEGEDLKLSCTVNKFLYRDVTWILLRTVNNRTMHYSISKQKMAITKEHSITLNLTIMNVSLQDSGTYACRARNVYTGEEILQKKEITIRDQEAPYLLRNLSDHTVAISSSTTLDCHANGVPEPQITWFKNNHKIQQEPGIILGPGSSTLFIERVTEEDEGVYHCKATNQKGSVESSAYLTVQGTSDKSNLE
Protocol: Peptides VEGFR1 binding ability was determined by a competition ELISA test. Briefly, recombinant human VEGFR1 extracellular domains (ECD) were adsorbed on the surface of a 96-well microplate. After washing and BSA blocking, the plate was incubated with different compounds at 100 µM in competition with biotinylated VEGF (btVEGF). After additional washing steps, the remaining btVEGF was detected by chemiluminescence, via an HRP-conjugated streptavidin.
The 96-well plates were coated with humanized extracellular domains (ECD) of VEGFR-1 (R&D Systems, Abingdon, UK) in PBS (20 ng/well) overnight at 4 °C. On the following day, the plates were washed with 250 µL wash buffer (PBS containing 0.1% (v/v) Tween 20) three times and treated with blocking buffer (PBS containing 3% (w/v) BSA) at 37 °C for 2 h, followed by three washes with wash buffer. 50 µL of peptides solution at twice the desired final concentration (in PBS containing 2% DMSO) were added in triplicate wells and the plate was kept at 37 °C for 1 h. A solution of btVEGF-A165 (R & D Systems, Abingdon, UK) at twice the desired final concentration (typically 100 pM) in 50 µL PBS was added. After 2 h incubation, the plates were washed four times with wash buffer. 100 µL of Streptavidin‑Horseradish Peroxidase (Amersham, Pittsburgh, PA, USA) diluted 1:8000 w in PBS containing 0.1% (v/v) Tween 20 and 0.3% (w/v) BSA) were then added to each well to detect the btVEGF‑A165 bound to the ECD of VEGFR1. After 45 min incubation at 37 °C and in the dark, the plate was washed five times with wash buffer. A volume of 100 µL of SuperSignal West Pico Chemioluminescent Substrate (Pierce, Rockford, IL, USA) was added and the chemiluminescence was quantified with a Perkin Elmer Victor 2 spectrophotometer (Victor Wallac Multilabel reader). The percentages of displacement were calculated by the following formula: 100 × [1 − (S − NS)/(MS − NS)] where S is the signal measured, NS is the nonspecific binding signal defined as the signal measured in the absence of coated receptor on the microplate, and MS is the maximum binding signal obtained with (bt)-VEGF-A165 without competitor.

[2] = water solubility (qualitative); assay type: physicochemical; details: qualitative comparison between peptides
[3] = system: D2 domain of VEGFR1; details: shares with VEGF a common binding site on D2 (His223, Arg224); cited from earlier work
From the text: In the laboratory, a series of cyclic octapeptides has been developed.

Molecule: COc1ccc2c(CNC(=O)[C@@H]3CCC(=O)N[C@@H](Cc4ccc(O)cc4)C(=O)N[C@@H](CCCCN)C(=O)N[C@@H](CC(=O)O)C(=O)N[C@@H](CCC(=O)O)C(=O)NCC(=O)N[C@@H](CC(C)C)C(=O)N[C@@H](CCC(=O)O)C(=O)N3)cc(=O)oc2c1 [Peptide 19] (YKDEGLEE-X1; lactam N-8)
- Displacement (%) 30 µM ([1]; dose dependence, peptide 30 µM, NA means no activity): 11%
- Displacement (%) 50 µM ([1]; dose dependence, peptide 50 µM): 41%
- Displacement (%) 100 µM ([1]; dose dependence, peptide 100 µM): 68%
- Displacement 100 µM (%) ([1]; percentage of btVEGF displaced by peptide at 100 µM, btVEGF-A165 typically 100 pM, chemiluminescence, same btVEGF batch): 68%
- water solubility [2]: slightly less water soluble than 15 and 16

Molecule: c[YYDEGLEE]-NH2 (sidechain bridge or staple) [Peptide 1]
- interaction with the D2 domain of VEGFR1 by NMR [3]: interacts
